Results: patent publication US8486940B2, “Inhibitors” (Probiodrug AG, priority 2009, dated 2013)

Target: hQC (Homo sapiens (Human), UniProt Q16769)
Assay: QC inhibitor assay (fluorometric / spectrophotometric QC activity assays)
Assay type: biochemical
Protocol: Excitation/emission wavelengths were 320/410 nm.
This novel assay was used to determine the kinetic parameters for most of the QC substrates. […] Samples consisted of the respective QC substrate, 0.3 mM NADH, 14 mM α-Ketoglutaric acid and 30 U/ml glutamate dehydrogenase in a final volume of 250 μl. Reactions were started by addition of QC and persued by monitoring of the decrease in absorbance at 340 nm for 8-15 min.
All samples were measured at 30° C., using either the […]uor Plus or the Sunrise (both from TECAN) reader for microplates. Kinetic data was evaluated using GraFit software.
For inhibitor testing, the sample composition was the same as described above, except of the putative inhibitory compound added. For a rapid test of QC-inhibition, samples contained 4 mM of the respective inhibitor and a substrate concentration at 1 KM. For detailed investigations of the inhibition and determination of K,-values, influence of the inhibitor on the auxiliary enzymes was investigated first. […] The inhibitory constant was evaluated by fitting the set of progress curves to the general equation for competitive inhibition using GraFit software.

Sequence of hQC (Q16769 29-361): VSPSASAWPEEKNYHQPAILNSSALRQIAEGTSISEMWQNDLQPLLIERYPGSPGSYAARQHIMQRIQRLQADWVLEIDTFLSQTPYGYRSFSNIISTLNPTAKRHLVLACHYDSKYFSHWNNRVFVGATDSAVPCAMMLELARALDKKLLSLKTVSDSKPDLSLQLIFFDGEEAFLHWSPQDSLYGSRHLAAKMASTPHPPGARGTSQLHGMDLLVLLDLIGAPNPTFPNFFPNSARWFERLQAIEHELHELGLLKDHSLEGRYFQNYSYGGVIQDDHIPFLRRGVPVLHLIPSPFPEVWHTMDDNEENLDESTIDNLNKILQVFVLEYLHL

Row | Compound | IC50
1 | O=C1NCC(C2CCCCC2)N1c1ccc2[nH]cnc2c1 (centres unmarked) [Example 2, 1-(1H-benzo[d]imidazol-5-yl)-5-cyclohexylimidazolidin-2-one] | < 10 µM
2 | COc1ccc(C2CCCN2c2ccc3[nH]cnc3c2)cc1 (centres unmarked) [Example 102, 5-(2-(4-methoxyphenyl)pyrrolidin-1-yl)-1H-benzo[d]imidazole] | < 10 µM
3 | S=C1CSC(c2ccccc2)N1c1ccc2[nH]cnc2c1 (centres unmarked) [Example 118, 3-(1H-benzo[d]imidazol-5-yl)-2-phenylthiazolidine-4-thione] | < 10 µM
4 | O=C1CSC(c2ccsc2)N1c1ccc2nc[nH]c2c1 (centres unmarked) [Example 116, 3-(1H-benzo[d]imidazol-6-yl)-2-(thiophen-3-yl)thiazolidin-4-one] | < 10 µM

Continued, values first:

Row | IC50 | Compound
5 | < 10 µM | O=C1NCC(c2ccc(N3CCCCC3)cc2)N1c1ccc2[nH]cnc2c1 (centres unmarked) [Example 175, 1-(1H-benzo[d]imidazol-5-yl)-5-(4-(piperidin-1-yl)phenyl)imidazolidin-2-one]
6 | < 10 µM | CC(C)[C@H]1COC(=O)N1c1ccc2[nH]cnc2c1 [Example 68, (S)-3-(1H-benzo[d]imidazol-5-yl)-4-isopropyloxazolidin-2-one]
7 | < 10 µM | COc1ccc(C2CNC(=O)N2c2ccc3[nH]cnc3c2)cc1 (centres unmarked) [Example 5, 1-(1H-benzo[d]imidazol-5-yl)-5-(4-methoxyphenyl)imidazolidin-2-one]
8 | < 10 µM | O=C1NCC(c2ccccc2)N1c1ccc2[nH]cnc2c1 (centres unmarked) [Example 3, 1-(1H-benzo[d]imidazol-5-yl)-5-phenylimidazolidin-2-one]
